Experimental data published in PMC3923439, “Anti-inflammatory properties of a novel peptide interleukin 1 receptor antagonist” (Journal of Neuroinflammation, 2014).
Positions of bridges follow the written chain, without caps; N, C: chain ends. Chains are numbered I, II in the order given. No end group written: not given here.

Experiments:
ectodomain of IL-1RI = molecular target: T1, ectodomain of IL-1RI (Homo sapiens, UniProt P14778); assay: Surface plasmon resonance binding of immobilized ligand to recombinant IL-1RI ectodomain; conditions: SPR, Biacore 2000, ligand immobilized on CM4 chip, IL-1RI ectodomain injected, 25°C, pH 7.4
T1 construct: the recombinant ectodomain of IL-1RI (R&D Systems) was injected; purchased R&D Systems
T1 sequence (P14778 18-336 limits assumed): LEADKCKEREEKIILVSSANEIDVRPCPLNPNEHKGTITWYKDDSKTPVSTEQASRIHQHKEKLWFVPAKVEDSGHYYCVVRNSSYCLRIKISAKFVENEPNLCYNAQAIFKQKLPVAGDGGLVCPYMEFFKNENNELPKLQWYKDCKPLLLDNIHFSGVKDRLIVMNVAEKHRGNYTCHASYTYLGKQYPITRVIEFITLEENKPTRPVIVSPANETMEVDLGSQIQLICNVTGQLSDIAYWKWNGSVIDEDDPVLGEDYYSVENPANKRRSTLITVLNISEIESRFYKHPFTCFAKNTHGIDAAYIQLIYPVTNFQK
Procedure: The binding analysis was performed using a Biacore 2000 instrument (GE Healthcare Life Sciences) that contained 150 mM NaCl as running buffer at 25°C with 10 mM sodium phosphate (pH 7.4). The flow rate was 5 μl/min during immobilization. Ilantide peptide, IL-1β or IL-1Ra was immobilized on a CM4 sensor chip according to the manufacturer’s instructions, after which the recombinant ectodomain of IL-1RI (R&D Systems) was injected. The neural cell adhesion molecule (NCAM) immunoglobulin modules 1 and 2 (Ig1 and Ig2) were used as a negative control protein [9]. The data were analyzed using nonlinear curve-fitting with the manufacturer’s software.

[1] = tested on: neonatal rat pancreatic islets; assay: IL-1β-induced rat islet cell apoptosis (cell death detection ELISA); assay type: cell-based
Procedure: Neonatal rat islets were isolated from 3- to 6-day-old outbred Wistar rats (Taconic, Ejby, Denmark) as previously described. Islets were precultured and maintained in RPMI 1640 medium (Gibco/Life Technologies) supplemented with 20 mmol/L HEPES buffer, 0.038% (wt/vol) NaHCO3, 100 U/ml penicillin, 100 µg/ml streptomycin and 10% (vol/vol) newborn calf serum (NCS) at 37°C in humidified atmospheric air. Prior to experimentation, the islets were randomly distributed to 24-well dishes and incubated for 2 hours in RPMI 1640 medium supplemented as described above, but with 0.5% (vol/vol) NCS relevant reagents were added as indicated.
(§1) For cell death detection, rat islets were incubated with 150 pg/ml IL-1β (BD Pharmingen, San Diego, CA, USA) alone or in combination with various concentrations of Ana and Ilantide for 24 hours at 37°C in humidified atmospheric air. Rat islet cell death was assessed by cell death detection ELISA (Roche, Lund, Sweden) as previously described. As a surrogate measure of nitric oxide production, Griess reagent (1:1 aqueous mixture of 0.1% naphthylethylenediamine hydrochloride and 1% sulfanilamide + 5% H3PO4) was mixed in a 1:1 ratio with 100 μl of supernatant samples to determine the nitrite content in supernatants from the cell death assays described above.
Figure 7 Effect of Ilantide on interleukin 1β-induced rat islet cell apoptosis. Rat pancreatic islets were preincubated for 30 minutes in the absence or presence of various concentrations of anakinra (A), Ilantide-m (B) or Ilantide-t (C) and then exposed to […] interleukin 1β (IL-1β) for 24 hours. Cytokine-induced apoptosis was determined by cell death detection enzyme-linked immunosorbent assay. Apoptosis rates are presented as fold induction compared with untreated control islets (white bars). The data from four independent experiments are presented as mean ± SEM. *P < 0.05 and **P < 0.01 compared with cultures treated with IL-1β alone (one-way analysis of variance followed by Dunnett’s post hoc test).

[2] = tested on: HEK-Blue IL-6 cells (STAT3); assay: IL-6-induced STAT3 activation, SEAP reporter; assay type: cell-based; conditions: 1.2 pM IL-6, 24 hours, SEAP read at 600 nm
Procedure: HEK-Blue IL-1β cells that contained an IL-1β-sensitive reporter (InvivoGen, San Diego, CA, USA) and HEK-Blue IL-6 cells that contained an IL-6-sensitive reporter (InvivoGen) were grown at 37°C with 5% CO2 in Dulbecco’s modified Eagle’s medium (DMEM) supplemented with 5% (vol/vol) fetal calf serum (FCS), 4.5 g/L glucose, 2 mM GlutaMAX medium, 100 U/ml penicillin, 100 μg/ml streptomycin (all obtained from Gibco BRL/Life Technologies, Taastrup, Denmark), 100 μg/ml zeocin, 200 μg/ml hygromycin and 100 μg/ml Normocin (all purchased from InvivoGen).
HEK-Blue IL-6 cells were grown as described above. IL-6 cells allow the monitoring of the activation of the signal transducer and activator of transcription 3 (STAT3) pathway specifically in response to IL-6. They express a STAT3-inducible SEAP reporter gene. For the STAT3 activation assay, the cells were treated with 1.2 pM IL-6 alone or together with various concentrations of Ilantide. TNF-α (1.2 pM) was added as a control ligand for both the NF-κB and STAT3 assays. After 24-hour incubation at 37°C, 150 μl of HEK-Blue cell supernatant were added to each well of a 96-well plate together with 50 μl of QUANTI-Blue (InvivoGen), incubated at 37°C in the dark for 40 minutes and measured in an ELISA reader at 600 nm to determine the expression level of the secreted SEAP.

[3] = tested on: neonatal rat pancreatic islets; assay: IL-1β-induced nitric oxide production (nitrite, Griess reagent); assay type: cell-based; conditions: nitrites in supernatants of the apoptosis experiments, four independent experiments
Procedure: as §1
Figure 8 Effect of Ilantide on interleukin 1β-induced nitric oxide production. Anakinra (A) but none of the peptides, Ilantide-m (B) or Ilantide-t (C), inhibited interleukin 1β (IL-1β)-induced nitric oxide production. The results of four independent experiments are shown. *P < 0.05 and **P < 0.01 compared with cultures treated with IL-1 alone (one-way analysis of variance followed by Dunnett’s post hoc test).

| k d (ectodomain of IL-1RI) | Substance | Reduction of IL-1-induced apoptosis relative to the maximal effect of Ana ([1]; Ilantide-t in high molar excess) | Maximal inhibition of IL-1β-induced apoptosis ([1]; rat islets, 30 minutes preincubation, 8.68 nM (150 pg/ml) IL-1β, 24 hours, four independent experiments) | Inhibition of STAT3 activation induced by IL-6 [2] | Inhibition of IL-1β-induced nitric oxide production [3] |
| --- | --- | --- | --- | --- | --- |
| 3.62 ± 0.65 × 10^-3 s^-1 | IL-1Ra: recombinant interleukin 1 receptor antagonist purchased from R&D Systems | – | – | – | – |
| – | I: SGRKSSKMQAKK-NH2 / II: SGRKSSKMQAK / III: SGRKSSKMQA / IV: SGRKSSKMQA (amide I:11-IV:C, I:12-II:C, II:11-III:C; C-terminus assumed) [Ilantide-t] | 1.5 × | 93% | did not inhibit | none |
